Like-named read-outs stand apart in the source and are kept apart here.
Tests used:
mtOXPHOS transcripts = assay type: cell-based, mouse; details: for mitoOX (composite Z-score): normalized score vs mock-treated (DMSO) wells
reactive oxygen species = assay type: cell-based, mouse; details: for ROS (composite Z-score): normalized score vs mock-treated (DMSO) wells
[1] = test system: cellular dehydrogenase activity; details: for MTT (composite Z-score): normalized score vs mock-treated (DMSO) wells
C2C12 myotubes = details: for Viability (composite Z-score): normalized score vs mock-treated (DMSO) wells
[2] = test system: mitochondrial membrane potential; assay type: cell-based, mouse; details: for ΔΨm (composite Z-score): normalized score vs mock-treated (DMSO) wells
nuOXPHOS transcripts = assay type: cell-based, mouse; details: for nucOX (composite Z-score): normalized score vs mock-treated (DMSO) wells
cytochrome c = assay type: cell-based, mouse; details: for cyt c (composite Z-score): normalized score vs mock-treated (DMSO) wells
OXPHOS gene expression = assay type: cell-based, mouse; details: for GE-HTS (composite Z-score): normalized score vs mock-treated (DMSO) wells
[3] = composite Z-score vs DMSO, Conc 20 μM
[4] = composite Z-score vs DMSO wells, Conc 20 μM
[5] = 20 μM, composite Z-score vs DMSO
[6] = 13.86 μM, composite Z-score vs DMSO
[7] = composite Z-score vs mock-treated (DMSO) wells, Conc 20 μM
[8] = normalized composite Z-score vs mock-treated (DMSO) wells, Conc 20 μM

`CCc1ccc2c(O)c3c(cc2c1C(=O)OC)C(=O)c1c(O)ccc(O)c1C3=O` [bisanhydrorutilantinone] was tested, and the mitoOX (mtOXPHOS transcripts; [3]) was −1.532, the ROS (reactive oxygen species; [3]) was 0.236 and the MTT [1, 3] was −1.755. The Viability (C2C12 myotubes; [3]) was −0.493, the ΔΨm [2, 3] was −2.223 and the nucOX (nuOXPHOS transcripts; [3]) was −0.268. For the same compound, the cyt c (cytochrome c; [3]) was 0.148 and the GE-HTS (OXPHOS gene expression; [3]) was −0.727.

`Oc1c(Cl)cc(Cl)cc1Sc1cc(Cl)cc(Cl)c1O` [bithionol] was tested, and the mitoOX (mtOXPHOS transcripts; [4]) was −1.838, the ROS (reactive oxygen species; [4]) was 1.449 and the MTT [1, 4] was 0.593. It also gave a Viability (C2C12 myotubes; [4]) of −2.247, a ΔΨm [2, 4] of −2.723 and a nucOX (nuOXPHOS transcripts; [4]) of −1.261. The cyt c (cytochrome c; [4]) was −2.613 and the GE-HTS (OXPHOS gene expression; [4]) was −1.531.

`CC(C)C[C@H]1C(=O)N2CCC[C@H]2[C@]2(O)O[C@](NC(=O)[C@@H]3C=C4c5cccc6[nH]c(Br)c(c56)C[C@H]4N(C)C3)(C(C)C)C(=O)N12` [bromocriptine] was tested, and the mitoOX (mtOXPHOS transcripts; [5]) was −0.322, the ROS (reactive oxygen species; [5]) was 0.176 and the MTT [1, 5] was −1.667. The Viability (C2C12 myotubes; [5]) was 1.142, the ΔΨm [2, 5] was 0.037 and the nucOX (nuOXPHOS transcripts; [5]) was 0.199. For the same compound, the cyt c (cytochrome c; [5]) was −0.064 and the GE-HTS (OXPHOS gene expression; [5]) was 0.006.

With `Oc1c(Br)cc(Br)c2cccnc12` [broxyquinoline] the mitoOX (mtOXPHOS transcripts; [5]) was −0.157, the ROS (reactive oxygen species; [5]) was −1.081 and the MTT [1, 5] was −1.180. For the same compound, the Viability (C2C12 myotubes; [5]) was −2.006, the ΔΨm [2, 5] was 1.701 and the nucOX (nuOXPHOS transcripts; [5]) was −1.095. The cyt c (cytochrome c; [5]) was 0.410 and the GE-HTS (OXPHOS gene expression; [5]) was −0.830.

For `COc1cc2c(cc1OC)[C@@]13CCN4CC5=CCO[C@H]6CC(=O)N2[C@H]1[C@H]6[C@H]5C[C@H]43` [brucine], the “mitoOX (composite Z-score)” value (mtOXPHOS transcripts; Conc 20 μM) was −0.887, the “ROS (composite Z-score)” value (reactive oxygen species; Conc 20 μM) was 0.930 and the “MTT (composite Z-score)” value ([1]; Conc 20 μM) was −1.270. The “Viability (composite Z-score)” value (C2C12 myotubes; Conc 20 μM) was 1.605, the “ΔΨm (composite Z-score)” value ([2]; Conc 20 μM) was 0.552 and the “nucOX (composite Z-score)” value (nuOXPHOS transcripts; Conc 20 μM) was −1.084. For the same compound, the “cyt c (composite Z-score)” value (cytochrome c; Conc 20 μM) was 0.660 and the “GE-HTS (composite Z-score)” value (OXPHOS gene expression; Conc 20 μM) was −1.106.

In the case of `COc1ccc(-c2cc(=O)c3c(O)cc(O[C@H]4O[C@H](CO[C@@H]5O[C@@H](C)[C@H](O)[C@@H](O)[C@H]5O)[C@@H](O)[C@H](O)[C@H]4O)cc3o2)cc1` [buddleoflavonoloside], the “mitoOX (composite Z-score)” value (mtOXPHOS transcripts; Conc 20 μM) is reported as 0.017, the “ROS (composite Z-score)” value (reactive oxygen species; Conc 20 μM) is reported as 0.265 and the “MTT (composite Z-score)” value ([1]; Conc 20 μM) is reported as 0.006. For the same compound, the “Viability (composite Z-score)” value (C2C12 myotubes; Conc 20 μM) was 0.169, the “ΔΨm (composite Z-score)” value ([2]; Conc 20 μM) was 0.050 and the “nucOX (composite Z-score)” value (nuOXPHOS transcripts; Conc 20 μM) was 0.114. The “cyt c (composite Z-score)” value (cytochrome c; Conc 20 μM) was 0.736 and the “GE-HTS (composite Z-score)” value (OXPHOS gene expression; Conc 20 μM) was 0.073.

With `CCCCN1CCCCC1C(=O)Nc1c(C)cccc1C` (centres unmarked) [bupivacaine] the mitoOX (mtOXPHOS transcripts; [6]) was 0.002, the mitoOX (mtOXPHOS transcripts; [5]) was 0.009 and the ROS (reactive oxygen species; [6]) was 0.545. The ROS (reactive oxygen species; [5]) was 0.801, the MTT [1, 6] was −1.440 and the MTT [1, 5] was −0.841. It also gave a Viability (C2C12 myotubes; [6]) of −0.663, a Viability (C2C12 myotubes; [5]) of −1.202 and a ΔΨm [2, 6] of −0.938. The ΔΨm [2, 5] was 0.084, the nucOX (nuOXPHOS transcripts; [6]) was −0.316 and the nucOX (nuOXPHOS transcripts; [5]) was 0.548. It also gave a cyt c (cytochrome c; [6]) of −0.058, a cyt c (cytochrome c; [5]) of 0.190 and a GE-HTS (OXPHOS gene expression; [6]) of −0.227. The GE-HTS (OXPHOS gene expression; [5]) was 0.392.

`COC(=O)C[C@H]1C2(C)CC34OC5(C)O[C@@]6([C@H](OC(C)=O)C(OC(C)=O)[C@]7(C)C(/C(=C(/O)C(C)C)C(=O)O[C@H]7c7ccoc7)[C@@]6(O5)[C@H](OC(C)=O)[C@@]3(O)C2OC(=O)C(C)C)[C@]14C` (some centres unmarked) [bussein] showed a mitoOX (mtOXPHOS transcripts; [3]) of −0.868, a mitoOX (mtOXPHOS transcripts; [7]) of 1.660 and an ROS (reactive oxygen species; [3]) of 0.656. It also gave an ROS (reactive oxygen species; [7]) of −0.449, an MTT [1, 3] of −0.599 and an MTT [1, 7] of −1.406. For the same compound, the Viability (C2C12 myotubes; [3]) was −0.052, the Viability (C2C12 myotubes; [7]) was 0.575 and the ΔΨm [2, 3] was −0.807. The ΔΨm [2, 7] was 0.367, the nucOX (nuOXPHOS transcripts; [3]) was −0.683 and the nucOX (nuOXPHOS transcripts; [7]) was 1.431. For the same compound, the cyt c (cytochrome c; [3]) was 0.622, the cyt c (cytochrome c; [7]) was −1.496 and the GE-HTS (OXPHOS gene expression; [3]) was −0.809. The GE-HTS (OXPHOS gene expression; [7]) was 1.630.

For `CCC[C@H]1CC2=C(C[C@@H](CC)CC3=C1C(=O)OC3=O)C(=O)OC2=O` [byssochlamic acid], the “mitoOX (composite Z-score)” value (mtOXPHOS transcripts; Conc 20 μM) was −0.458, the “ROS (composite Z-score)” value (reactive oxygen species; Conc 20 μM) was 0.253 and the “MTT (composite Z-score)” value ([1]; Conc 20 μM) was −0.488. The “Viability (composite Z-score)” value (C2C12 myotubes; Conc 20 μM) was −0.241, the “ΔΨm (composite Z-score)” value ([2]; Conc 20 μM) was −0.092 and the “nucOX (composite Z-score)” value (nuOXPHOS transcripts; Conc 20 μM) was −0.069. The “cyt c (composite Z-score)” value (cytochrome c; Conc 20 μM) was −1.053 and the “GE-HTS (composite Z-score)” value (OXPHOS gene expression; Conc 20 μM) was −0.230.

In the case of `NCCCCCN` [cadaverine], the mitoOX (mtOXPHOS transcripts; [3]) is reported as −0.205, the ROS (reactive oxygen species; [3]) is reported as 0.160 and the MTT [1, 3] is reported as −0.915. It also gave a Viability (C2C12 myotubes; [3]) of −1.003, a ΔΨm [2, 3] of −0.730 and a nucOX (nuOXPHOS transcripts; [3]) of −0.667. The cyt c (cytochrome c; [3]) was −0.135 and the GE-HTS (OXPHOS gene expression; [3]) was −0.553.

`CC1=CC2C(C(C)C)CCC(C)(O)C2CC1` (centres unmarked) [cadin-4-en-10-ol] was tested, and the mitoOX (mtOXPHOS transcripts; [8]) was −1.252, the ROS (reactive oxygen species; [8]) was 0.180 and the MTT [1, 8] was −0.041. The Viability (C2C12 myotubes; [8]) was −0.101, the ΔΨm [2, 8] was −0.297 and the nucOX (nuOXPHOS transcripts; [8]) was −0.244. The cyt c (cytochrome c; [8]) was 0.328 and the GE-HTS (OXPHOS gene expression; [8]) was −0.610.

— patent US20090143279A1 (priority 2007, published 2009)
